In article PMC10408569, “Recruitment of hexahydroquinoline as anticancer scaffold targeting inhibition of wild and mutants EGFR (EGFR^WT, EGFR^T790M, and EGFR^L858R)” (Journal of Enzyme Inhibition and Medicinal Chemistry, 2023):

Tests used:
EKVX = test: NCI-60 anticancer screening (SRB); format: cell-based; settings: Homo sapiens, NSC lung cancer, one dose 10 μM, read-out: Growth Inhibition Percentage (GI %)
OVCAR-4 = test: NCI-60 anticancer screening (SRB); format: cell-based; settings: Homo sapiens; OVCAR-4, ovarian cancer; one dose 10 μM; read-out: Growth Inhibition Percentage (GI %)
DU-145 = test: NCI-60 anticancer screening (SRB); format: cell-based; settings: Homo sapiens; DU-145, prostate cancer; one dose 10 μM; read-out: Growth Inhibition Percentage (GI %)
MOLT-4 = test: NCI-60 anticancer screening (SRB); format: cell-based; settings: Homo sapiens; MOLT-4, leukemia; one dose 10 μM; read-out: Growth Inhibition Percentage (GI %)
UO-31 = test: NCI-60 anticancer screening (SRB); format: cell-based; settings: Homo sapiens; UO-31, renal cancer; one dose 10 μM; read-out: Growth Inhibition Percentage (GI %)
SF-295 = test: NCI-60 anticancer screening (SRB); format: cell-based; settings: Homo sapiens; SF-295, CNS cancer; one dose 10 μM; read-out: Growth Inhibition Percentage (GI %)
ACHN = test: NCI-60 anticancer screening (SRB); format: cell-based; settings: Homo sapiens, renal cancer, one dose 10 μM, read-out: Growth Inhibition Percentage (GI %)
HT29 = test: NCI-60 anticancer screening (SRB); format: cell-based; settings: Homo sapiens, HT-29; HT29, colon cancer; one dose 10 μM; read-out: Growth Inhibition Percentage (GI %)
NCI-H460 = test: NCI-60 anticancer screening (SRB); format: cell-based; settings: Homo sapiens; NCI-H460, NSC lung cancer; one dose 10 μM; read-out: Growth Inhibition Percentage (GI %)
HOP-92 = test: NCI-60 anticancer screening (SRB); format: cell-based; settings: Homo sapiens; HOP-92, NSC lung cancer; one dose 10 μM; read-out: Growth Inhibition Percentage (GI %)
OVCAR-3 = test: NCI-60 anticancer screening (SRB); format: cell-based; settings: Homo sapiens; OVCAR-3, ovarian cancer; one dose 10 μM; read-out: Growth Inhibition Percentage (GI %)
SN 12C = test: NCI-60 anticancer screening (SRB); format: cell-based; settings: Homo sapiens, SN12C; SN 12C, renal cancer; one dose 10 μM; read-out: Growth Inhibition Percentage (GI %)
MALME-3M = test: NCI-60 anticancer screening (SRB); format: cell-based; settings: Homo sapiens, melanoma, one dose 10 μM, read-out: Growth Inhibition Percentage (GI %)
OVCAR-8 = test: NCI-60 anticancer screening (SRB); format: cell-based; settings: Homo sapiens; OVCAR-8, ovarian cancer; one dose 10 μM; read-out: Growth Inhibition Percentage (GI %)
MDA-MB-435 = test: NCI-60 anticancer screening (SRB); format: cell-based; settings: Homo sapiens; MDA-MB-435, melanoma; one dose 10 μM; read-out: Growth Inhibition Percentage (GI %)
RPMI-8226 = test: NCI-60 anticancer screening (SRB); format: cell-based; settings: Homo sapiens; RPMI-8226, leukemia; one dose 10 μM; read-out: Growth Inhibition Percentage (GI %)
SK-MEL-5 = test: NCI-60 anticancer screening (SRB); format: cell-based; settings: Homo sapiens; SK-MEL-5, melanoma; one dose 10 μM; read-out: Growth Inhibition Percentage (GI %)
CAKI-1 = test: NCI-60 anticancer screening (SRB); format: cell-based; settings: Homo sapiens; CAKI-1, renal cancer; one dose 10 μM; read-out: Growth Inhibition Percentage (GI %)
SNB-19 = test: NCI-60 anticancer screening (SRB); format: cell-based; settings: Homo sapiens; SNB-19, CNS cancer; one dose 10 μM; read-out: Growth Inhibition Percentage (GI %)
HS 578T = test: NCI-60 anticancer screening (SRB); format: cell-based; settings: Homo sapiens; HS 578T, breast cancer; one dose 10 μM; read-out: Growth Inhibition Percentage (GI %)
A549/ATCC = test: NCI-60 anticancer screening (SRB); format: cell-based; settings: Homo sapiens; A549/ATCC, NSC lung cancer; one dose 10 μM; read-out: Growth Inhibition Percentage (GI %)
SK-MEL-28 = test: NCI-60 anticancer screening (SRB); format: cell-based; settings: Homo sapiens; SK-MEL-28, melanoma; one dose 10 μM; read-out: Growth Inhibition Percentage (GI %)
HOP-62 = test: NCI-60 anticancer screening (SRB); format: cell-based; settings: Homo sapiens; HOP-62, NSC lung cancer; one dose 10 μM; read-out: Growth Inhibition Percentage (GI %)
HCC-2998 = test: NCI-60 anticancer screening (SRB); format: cell-based; settings: Homo sapiens; HCC-2998, colon cancer; one dose 10 μM; read-out: Growth Inhibition Percentage (GI %)
UACC-62 = test: NCI-60 anticancer screening (SRB); format: cell-based; settings: Homo sapiens; UACC-62, melanoma; one dose 10 μM; read-out: Growth Inhibition Percentage (GI %)
NCI-H522 = test: NCI-60 anticancer screening (SRB); format: cell-based; settings: Homo sapiens; NCI-H522, NSC lung cancer; one dose 10 μM; read-out: Growth Inhibition Percentage (GI %)
SF-539 = test: NCI-60 anticancer screening (SRB); format: cell-based; settings: Homo sapiens; SF-539, CNS cancer; one dose 10 μM; read-out: Growth Inhibition Percentage (GI %)

Structure (SMILES): CCOC(=O)C1=C(N)N(c2ccccc2)C2=C(C(=O)CC(C)(C)C2)C1c1ccc(F)cc1 (racemic) [8a, (±)-Ethyl 2-amino-4–(4-fluorophenyl)-7,7-dimethyl-5-oxo-1-phenyl-1,4,5,6,7,8-hexahydroquinoline-3-carboxylate]
- inhibition at 10 µM (EKVX): < 10%
- inhibition at 10 µM (OVCAR-4): < 10%
- inhibition at 10 µM (DU-145): < 10%
- inhibition at 10 µM (MOLT-4): < 10%
- inhibition at 10 µM (UO-31): < 10%
- inhibition at 10 µM (SF-295): < 10%
- melting point: 215 to 217 °C
- inhibition at 10 µM (ACHN): < 10%
- inhibition at 10 µM (HT29): < 10%
- inhibition at 10 µM (NCI-H460): < 10%
- inhibition at 10 µM (HOP-92): < 10%
- inhibition at 10 µM (OVCAR-3): < 10%
- inhibition at 10 µM (SN 12C): < 10%
- inhibition at 10 µM (MALME-3M): < 10%
- inhibition at 10 µM (OVCAR-8): < 10%
- inhibition at 10 µM (MDA-MB-435): < 10%
- inhibition at 10 µM (RPMI-8226): < 10%
- inhibition at 10 µM (SK-MEL-5): < 10%
- inhibition at 10 µM (CAKI-1): < 10%
- inhibition at 10 µM (SNB-19): < 10%
- inhibition at 10 µM (HS 578T): < 10%
- inhibition at 10 µM (A549/ATCC): < 10%
- inhibition at 10 µM (SK-MEL-28): < 10%
- inhibition at 10 µM (HOP-62): < 10%
- inhibition at 10 µM (HCC-2998): < 10%
- inhibition at 10 µM (UACC-62): < 10%
- inhibition at 10 µM (NCI-H522): < 10%
- inhibition at 10 µM (SF-539): < 10%

Structure (SMILES): CCOC(=O)C1=C(N)N(c2ccc(C)cc2)C2=C(C(=O)CC(C)(C)C2)C1c1ccc(Cl)cc1 (racemic) [8d, (±)-Ethyl 2-amino-4–(4-chlorophenyl)-7,7-dimethyl-1–(4-methylphenyl)-5-oxo-1,4,5,6,7,8-hexahydroquinoline-3-carboxylate]
- inhibition at 10 µM (EKVX): 15%
- inhibition at 10 µM (OVCAR-4): < 10%
- inhibition at 10 µM (DU-145): < 10%
- inhibition at 10 µM (MOLT-4): < 10%
- inhibition at 10 µM (UO-31): 16%
- inhibition at 10 µM (SF-295): < 10%
- melting point: 205 to 207 °C
- inhibition at 10 µM (ACHN): < 10%
- inhibition at 10 µM (HT29): 33%
- inhibition at 10 µM (NCI-H460): 21%
- inhibition at 10 µM (HOP-92): < 10%
- inhibition at 10 µM (OVCAR-3): 16%
- inhibition at 10 µM (SN 12C): < 10%
- inhibition at 10 µM (MALME-3M): < 10%
- inhibition at 10 µM (OVCAR-8): 13%
- inhibition at 10 µM (MDA-MB-435): < 10%
- inhibition at 10 µM (RPMI-8226): < 10%
- inhibition at 10 µM (SK-MEL-5): 16%
- inhibition at 10 µM (CAKI-1): 30%
- inhibition at 10 µM (SNB-19): < 10%
- inhibition at 10 µM (HS 578T): < 10%
- inhibition at 10 µM (A549/ATCC): 14%
- inhibition at 10 µM (SK-MEL-28): < 10%
- inhibition at 10 µM (HOP-62): < 10%
- inhibition at 10 µM (HCC-2998): < 10%
- inhibition at 10 µM (UACC-62): 24%
- inhibition at 10 µM (NCI-H522): 15%
- inhibition at 10 µM (SF-539): < 10%

Structure (SMILES): CCOC(=O)C1=C(N)N(c2ccccc2)C2=C(C(=O)CC(C)(C)C2)C1c1ccc(OC)cc1 (racemic) [8f, (±)-Ethyl2-amino-4–(4-methoxyphenyl)-7,7-dimethyl-5-oxo-1-phenyl-1,4,5,6,7,8-hexahydroquinoline-3-carboxylate]
- inhibition at 10 µM (EKVX): < 10%
- inhibition at 10 µM (OVCAR-4): < 10%
- inhibition at 10 µM (DU-145): < 10%
- inhibition at 10 µM (MOLT-4): 14%
- inhibition at 10 µM (UO-31): < 10%
- inhibition at 10 µM (SF-295): < 10%
- melting point: 169 to 171 °C
- inhibition at 10 µM (ACHN): < 10%
- inhibition at 10 µM (HT29): < 10%
- inhibition at 10 µM (NCI-H460): < 10%
- inhibition at 10 µM (HOP-92): < 10%
- inhibition at 10 µM (OVCAR-3): < 10%
- inhibition at 10 µM (SN 12C): < 10%
- inhibition at 10 µM (MALME-3M): < 10%
- inhibition at 10 µM (OVCAR-8): < 10%
- inhibition at 10 µM (MDA-MB-435): < 10%
- inhibition at 10 µM (RPMI-8226): 15%
- inhibition at 10 µM (SK-MEL-5): < 10%
- inhibition at 10 µM (CAKI-1): 22%
- inhibition at 10 µM (SNB-19): 14%
- inhibition at 10 µM (HS 578T): 12%
- inhibition at 10 µM (A549/ATCC): < 10%
- inhibition at 10 µM (SK-MEL-28): < 10%
- inhibition at 10 µM (HOP-62): < 10%
- inhibition at 10 µM (HCC-2998): < 10%
- inhibition at 10 µM (UACC-62): < 10%
- inhibition at 10 µM (NCI-H522): < 10%
- inhibition at 10 µM (SF-539): < 10%

Structure (SMILES): CCOC(=O)C1=C(N)N(c2ccc(C)cc2)C2=C(C(=O)CC(C)(C)C2)C1c1ccc(OC)cc1 (racemic) [8g, (±)-Ethyl 2-amino-4–(4-methoxyphenyl)-7,7-dimethyl-1–(4-methylphenyl)-5-oxo-1,4,5,6,7,8-hexahydroquinoline-3-carboxylate]
- inhibition at 10 µM (EKVX): < 10%
- inhibition at 10 µM (OVCAR-4): < 10%
- inhibition at 10 µM (DU-145): < 10%
- inhibition at 10 µM (MOLT-4): < 10%
- inhibition at 10 µM (UO-31): < 10%
- inhibition at 10 µM (SF-295): < 10%
- melting point: 181 to 183 °C
- inhibition at 10 µM (ACHN): < 10%
- inhibition at 10 µM (HT29): < 10%
- inhibition at 10 µM (NCI-H460): < 10%
- inhibition at 10 µM (HOP-92): < 10%
- inhibition at 10 µM (OVCAR-3): < 10%
- inhibition at 10 µM (SN 12C): < 10%
- inhibition at 10 µM (MALME-3M): < 10%
- inhibition at 10 µM (OVCAR-8): < 10%
- inhibition at 10 µM (MDA-MB-435): < 10%
- inhibition at 10 µM (RPMI-8226): < 10%
- inhibition at 10 µM (SK-MEL-5): < 10%
- inhibition at 10 µM (CAKI-1): < 10%
- inhibition at 10 µM (SNB-19): < 10%
- inhibition at 10 µM (HS 578T): < 10%
- inhibition at 10 µM (A549/ATCC): < 10%
- inhibition at 10 µM (SK-MEL-28): < 10%
- inhibition at 10 µM (HOP-62): < 10%
- inhibition at 10 µM (HCC-2998): < 10%
- inhibition at 10 µM (UACC-62): < 10%
- inhibition at 10 µM (NCI-H522): < 10%
- inhibition at 10 µM (SF-539): < 10%
